The supplement of paper PMC3974653
Counter-ions that a name gives are not always drawn.

What follows are compounds tested on MTT (mouse pheochromocytoma) (assay: IC50 of cell viability (ATP content)). Conditions: (24 or 48 h).
Procedure, shortened: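 MTT mouse pheochromocytoma cells in white 1536-well plates were treated for 24 or 48 hrs with library compounds at 8 final concentrations from 0.5 nM to 46 µM. ATP content was measured with CellTiter-Glo luminescence, using positive-control wells as 100% and DMSO wells as 0%. IC50 came from a four-parameter logistic fit.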
For `CC1=C(C)C(=O)C(C(CCCCCC(=O)O)c2ccccc2)=C(C)C1=O` (stereo not given) [SERATRODAST], the “IC50 of cell viability” value was over 46 µM. In the case of `COc1ccc(CN(CCN(C)C)c2ncccn2)cc1.Cl` [THONZYLAMINE HYDROCHLORIDE], the “IC50 of cell viability” value is reported as over 46 µM. With `CCCCC(=O)O[C@@]1(CCC2C3CC\C4=C\C(=O)CCC4(C)C3C(O)CC12C)C(=O)CO` (stereo not given in full) [HYDROCORTISONE VALERATE] the “IC50 of cell viability” value was over 46 µM. In the case of `O=C(O)/C=C(/CC(=O)O)C(=O)O` [TRANS-ACONITIC ACID], the “IC50 of cell viability” value is reported as over 46 µM. In the case of `Cc1cc(O)c(C(=O)N[C@@H](C(=O)N[C@@H]2C(=O)N3C(C(=O)O)=C(CSc4nnnn4C)CS[C@H]23)c2ccc(O)cc2)cn1` [CEFPIRAMIDE SODIUM], the “IC50 of cell viability” value is reported as over 46 µM. With `COc1cccc2c1C(=O)c1c(O)c3c(c(O)c1C2=O)C[C@](O)(C(=O)CO)C[C@@H]3O[C@H]1C[C@H](N)[C@@H](O)[C@H](C)O1` [Adriamycin-DNA hydrochloride] the “IC50 of cell viability” value was over 46 µM. In the case of `O=c1oc2c(O)c(O)cc3c(=O)oc4c(O)c(O)cc1c4c23` [ELLAGIC ACID], the “IC50 of cell viability” value is reported as over 46 µM. For `O=C(Nc1ccccc1-c1ccc(Cl)cc1)c1cccnc1Cl` [Boscalid], the “IC50 of cell viability” value was over 46 µM. In the case of `C[N+]1(CCCCC[N+]2(C)CCCC2)CCCC1.O=C([O-])[C@@H](O)[C@@H](O)C(=O)O.O=C([O-])[C@@H](O)[C@@H](O)C(=O)O` [Pentolinium bitartrate], the “IC50 of cell viability” value is reported as over 46 µM. In the case of `NC(=O)c1ccc[n+]([C@@H]2O[C@@H](CO[P@@](=O)([O-])O[P@@](=O)(O)OC[C@@H]3O[C@@H](n4cnc5c(N)ncnc54)[C@@H](O)[C@H]3O)[C@H](O)[C@@H]2O)c1` [Nadide], the “IC50 of cell viability” value is reported as over 46 µM. For `CCCCOc1ccc(OCCCN2CCOCC2)cc1` [Pramoxine hydrochloride], the “IC50 of cell viability” value was over 46 µM. `CCOC(=O)\C1=C\[C@@]2(CC)CCCN3CCC4=C([C@@H]23)[N]1C5=C4C=CC=C5` [VINPOCETINE] was tested, and the “IC50 of cell viability” value was over 46 µM. For `NC(=O)N1C2=C(C=CC=C2)\C=C/C3=C1C=CC=C3` [Carbamazepine], the “IC50 of cell viability” value was over 46 µM. `CC(=O)N(CC(O)CN(C(C)=O)c1c(I)c(C(=O)NC[C@@H](O)CO)c(I)c(C(=O)NC[C@@H](O)CO)c1I)c1c(I)c(C(=O)NC[C@@H](O)CO)c(I)c(C(=O)NC[C@@H](O)CO)c1I` [Iodixanol] was tested, and the “IC50 of cell viability” value was over 46 µM. `NCCCCCC(=O)O` [Aminocaproic acid] was tested, and the “IC50 of cell viability” value was over 46 µM. `CC/1=C/CC2CC1C2(C)C` (stereo not drawn) [alpha-Pinene] was tested, and the “IC50 of cell viability” value was over 46 µM. With `CCCCCCCCCCCCCCCCCC[N+](C)(C)CCC[Si](OC)(OC)OC` the “IC50 of cell viability” value was over 46 µM. With `N[S+](=O)([O-])c1ccc(NC(=O)CCC(=O)O)cc1` [SULFASUCCINAMIDUM] the “IC50 of cell viability” value was over 46 µM. `CC(C)(C)CC(C)(C)c1ccc(O)c(Cc2ccc(Cl)cc2Cl)c1` [CLOFOCTOL] was tested, and the “IC50 of cell viability” value was over 46 µM. In the case of `C=CS(=O)(=O)[O-]` [Vinylsulfonic acid sodium salt solution], the “IC50 of cell viability” value is reported as over 46 µM. For `CN1C(C(=O)Nc2ccccn2)C(=O)c2sc(Cl)cc2[S+]1(=O)[O-]` (stereo not given) [Lornoxicam], the “IC50 of cell viability” value was over 46 µM. With `CN1C(=S)CN=C(c2ccccc2)c2cc(Cl)ccc21` [Sulazepam] the “IC50 of cell viability” value was over 46 µM. For `CCC1([C@@H]2O[C@@H]([C@@H]3O[C@](O)(CO)[C@@H](C)C[C@H]3C)C[C@H]2C)CC[C@H]([C@]2(C)CC[C@]3(C[C@@H](O)[C@@H](C)[C@H]([C@H](C)[C@H](OC)[C@H](C)C(=O)[O-])O3)O2)O1.[Na+]` (stereo not given in full) [Monensin sodium salt], the “IC50 of cell viability” value was over 46 µM. In the case of `CNCCCC1C2=C(C=CC=C2)\C=C/C3=C1C=CC=C3` [Protriptyline hydrochloride], the “IC50 of cell viability” value is reported as over 46 µM. With `CN1CCC[C@@H]1CCO[C@](C)(c1ccccc1)c1ccc(Cl)cc1` [Clemastine fumarate] the “IC50 of cell viability” value was over 46 µM. In the case of `CC(=O)[O-].C[N+](C)(C)CCO` [Cholin acetate], the “IC50 of cell viability” value is reported as over 46 µM. With `O=C(O)c1cc(-c2ccccc2)nc2ccccc12` [2-Phenyl-4-quinolinecarboxylic acid] the “IC50 of cell viability” value was over 46 µM. With `C[C@@]12CC[C@H]3[C@@H](CC[C@@H]4C[C@H]5S[C@H]5C[C@]43C)[C@H]1CC[C@H]2O` [Epitiostanol] the “IC50 of cell viability” value was over 46 µM. `Nc1ccc([S+](=O)([O-])Nc2cnc3ccccc3n2)cc1` [sulfaquinoxaline] was tested, and the “IC50 of cell viability” value was over 46 µM. `CC1(C)OC[C@@H](COC(=O)CCc2ccc(OC[C@@H](O)CNCCNC(=O)N3CCOCC3)cc2)O1` [Landiolol] was tested, and the “IC50 of cell viability” value was over 46 µM. In the case of `OCCOCCN1CCN(C(c2ccccc2)c2ccc(Cl)cc2)CC1` (stereo not given) [Tranquizine], the “IC50 of cell viability” value is reported as over 46 µM. For `NC/C=C/C(=O)O` [(E)-4-amino-2-butenoic acid], the “IC50 of cell viability” value was over 46 µM. `O=C(O)/C=C/c1ccccc1` [CINNAMIC ACID] was tested, and the “IC50 of cell viability” value was over 46 µM. `NC(=O)c1ccc([N+](=O)[O-])cc1Cl` [AKLOMIDE] was tested, and the “IC50 of cell viability” value was over 46 µM. With `CC(C)[C@@]1(NC(=O)[C@@H]2C[C@@H]3c4cccc5[nH]cc(c45)C[C@H]3N(C)C2)O[C@@]2(O)[C@@H]3CCCN3C(=O)[C@H](Cc3ccccc3)N2C1=O` [Dihydroergocristine] the “IC50 of cell viability” value was over 46 µM. In the case of `Sc1nc2ccccc2s1` [2-Mercaptobenzothiazole], the “IC50 of cell viability” value is reported as over 46 µM. `C[S+](=O)([O-])c1ccc(C(=O)C2C(=O)CCCC2=O)c([N+](=O)[O-])c1` [Mesotrione] was tested, and the “IC50 of cell viability” value was over 46 µM. In the case of `CN1C(=O)CN=C(c2ccccc2)c2cc([N+](=O)[O-])ccc21` [nimetazepam], the “IC50 of cell viability” value is reported as over 46 µM. For `C=C1CC[C@H](O)C/C1=C/C=C1\CCC[C@]2(C)[C@@H]([C@H](C)CC[C@@H](O)C(C)(C)O)CC[C@@H]12` [SECALCIFEROL], the “IC50 of cell viability” value was over 46 µM. With `FC1=CC=C(C=C1)C(=O)CCCN2CC\C(=C/C2)N3C(=O)NC4=C3C=CC=C4` [Droperidol] the “IC50 of cell viability” value was over 46 µM. For `COc1ccccc1N1CCN(CCCC(=O)c2ccc(F)cc2)CC1` [FLUANISONUM], the “IC50 of cell viability” value was over 46 µM. `CO/N=C(/C(=O)NC1C(=O)N2C(C(=O)[O-])=C(CSc3nc(=O)c([O-])nn3C)CSC12)c1csc(N)n1.O.O.O.[Na+].[Na+]` (stereo not given) [CEFTRIAXONE SODIUM TRIHYDRATE] was tested, and the “IC50 of cell viability” value was over 46 µM. With `Cc1ccc(O)cc1` [p-Cresol] the “IC50 of cell viability” value was over 46 µM. In the case of `c1ccc2ccccc2c1` [Naphthalene], the “IC50 of cell viability” value is reported as over 46 µM. In the case of `CCc1cc2c(s1)-n1c(C)nnc1CN=C2c1ccccc1Cl` [ETIZOLAM], the “IC50 of cell viability” value is reported as over 46 µM. In the case of `CCN(CC)C(=O)c1ccc(O)c(OC)c1` [Ethamivan], the “IC50 of cell viability” value is reported as over 46 µM. In the case of `CC(=O)OC1(c2ccccc2)CCN(CCc2ccccc2)CC1` [1-(2-Phenylethyl)-4-phenyl-4-acetoxypiperidine], the “IC50 of cell viability” value is reported as over 46 µM. In the case of `OC(CCN1CCCCC1)(c1ccccc1)c1ccccc1` [pridinol], the “IC50 of cell viability” value is reported as over 46 µM. `Cc1ccc(Cl)c(O)c1` [CHLORO-M-CRESOL] was tested, and the “IC50 of cell viability” value was over 46 µM. With `CCOc1ccc(C(=O)OCCN(CC)CC)cc1` [PARETHOXYCAINE HYDROCHLORIDE] the “IC50 of cell viability” value was over 46 µM. `Cc1c(Cn2ccnc2)c2ccccc2n1CCC(=O)O` [Dazmegrel] was tested, and the “IC50 of cell viability” value was over 46 µM. `CNC(=N)NC(=O)Nc1c(C)cccc1C` [Lidamidine] was tested, and the “IC50 of cell viability” value was over 46 µM. `C[C@H](N)C(=O)c1ccccc1` [(S)-(-)-Cathinone] was tested, and the “IC50 of cell viability” value was over 46 µM. `Cc1cnc(C(=O)NCCc2ccc([S+](=O)([O-])NC(=O)NC3CCCCC3)cc2)cn1` [GLIPIZIDE] was tested, and the “IC50 of cell viability” value was over 46 µM. `CC(=O)N[S+](=O)([O-])c1ccc(N)cc1` [Sulfacetamide] was tested, and the “IC50 of cell viability” value was over 46 µM. With `Cc1c(C)n(Cc2ccccc2)c2ccc(C(=O)OCCN(C)C)cc12` [Indocate] the “IC50 of cell viability” value was over 46 µM. `CNC(C)Cc1ccc2c(c1)OCO2` (stereo not given) [(?)-3,4-Methylenedioxymethamphetamine] was tested, and the “IC50 of cell viability” value was over 46 µM. With `CC(=O)C1(O)CCC2C3CC(C)C4=CC(=O)CCC4(C)C3CCC21C` (stereo not given) [Medroxyprogesterone] the “IC50 of cell viability” value was over 46 µM. In the case of `CC12C=CC(=O)C=C1[C@@H](F)CC1C2C(O)CC2(C)C1CC[C@]2(O)C(=O)CO` (stereo not given in full) [FLUPREDNISOLONE], the “IC50 of cell viability” value is reported as over 46 µM. In the case of `CCCN[C@@H](C)C(=O)Nc1c(C)csc1C(=O)OC` [Articaine hydrochloride], the “IC50 of cell viability” value is reported as over 46 µM. For `CCCCCCCCCCCC(CC1OC(=O)C1CCCCCC)OC(=O)C(CC(C)C)NC=O` (stereo not given) [ORLISTAT], the “IC50 of cell viability” value was over 46 µM. `CN(C)CCC(c1ccc(Cl)cc1)c1ccccn1` (stereo not given) [dexchlorpheniramine] was tested, and the “IC50 of cell viability” value was over 46 µM. With `C\C1=C\C(=O)OC2=C1C=CC(=C2)O` [Hymecromone] the “IC50 of cell viability” value was over 46 µM. For `CC(=O)NCCCS(=O)(=O)[O-]` [ACAMPROSATE CALCIUM], the “IC50 of cell viability” value was over 46 µM. With `CCCCCOC(=O)Nc1nc(=O)n(C2O[C@H](C)[C@@H](O)[C@@H]2O)cc1F` (stereo not given in full) [Capecitabine] the “IC50 of cell viability” value was over 46 µM. For `Cc1c(I)c(=O)n(-c2ccccc2)n1C` [IODOANTIPYRINE], the “IC50 of cell viability” value was over 46 µM. `O=c1n(Cl)c(=O)n(Cl)c(=O)n1Cl` [Symclosene] was tested, and the “IC50 of cell viability” value was over 46 µM. For `C#C[C@]1(O)CC[C@H]2[C@@H]3CCc4cc(OC)ccc4[C@H]3CC[C@@]21C` [MESTRANOL], the “IC50 of cell viability” value was over 46 µM. With `O=C(c1ccccc1)c1ccccc1` [Benzophenone] the “IC50 of cell viability” value was over 46 µM. `CN(C)CCN(Cc1ccc(Cl)cc1)c1ccccn1` [Chloropyramine hydrochloride] was tested, and the “IC50 of cell viability” value was over 46 µM. `Nc1ccc(C(=O)[O-])c(O)c1` [Pasiniazid] was tested, and the “IC50 of cell viability” value was over 46 µM. `CN(C)CCCOC1C(C(O)CO)OC2OC(C)(C)O[C@@H]21.Cl` (stereo not given in full) [AMIPRILOSE] was tested, and the “IC50 of cell viability” value was over 46 µM. In the case of `OCC(O)C(O)C(O)CO` (stereo not given) [ARABITOL(D)], the “IC50 of cell viability” value is reported as over 46 µM. In the case of `O=P(O)(O)OP(=O)(O)OP(=O)(O)O.[NaH]` [SODIUM TRIPOLYPHOSPHATE], the “IC50 of cell viability” value is reported as over 46 µM. With `Nc1ccc([S+](=O)([O-])Nc2ccccn2)cc1` [Sulfapyridine] the “IC50 of cell viability” value was over 46 µM.
